The assay concerns the target Glutamate receptor ionotropic, NMDA 2B (Rattus norvegicus, UniProt P35439+Q00960). Nature of the assay: Inhibition of Specific Binding to the Rat NR1/NR2B Receptor. Here is the method: After thawing on the day of the assay, a 5 ml membrane aliquot was centrifuged at 48000 g for 30 min at 4° C. The pellet was resuspended in 5 ml of 5 mM Tris/1 mM EDTA buffer, pH 7.4, homogenized for 30 sec at 20000 rpm with an Ultraturrax and centrifuged at 48000 g for 30 min at 4° C. This was repeated twice. […] Nonspecific binding was estimated in the presence of […]. The samples were incubated for 60 min. at 4° C.The incubation was terminated by filtration of the membrane preparations using Filtermat B (Pharmacia, Uppsala Sweden) and a Micro Cell Harvester (Skatron, Lier, Norway). The Filtermat B had been presoaked with 1% polyethylene imine and carefully washed with 50 mM Tris/HCl-buffer pH 7.7 after the filtration to separate free and bound radioactivity. […] For pipetting of the incubation mixture the robot Biomek2000 (Fa. Beckman) was used.

This note sets out measurements from BindingDB's records for patent US10155727 (Janssen Pharmaceuticals, 2018).

Glutamate receptor ionotropic, NMDA 2B, sequence (Q00960 whole entry, one chain of several): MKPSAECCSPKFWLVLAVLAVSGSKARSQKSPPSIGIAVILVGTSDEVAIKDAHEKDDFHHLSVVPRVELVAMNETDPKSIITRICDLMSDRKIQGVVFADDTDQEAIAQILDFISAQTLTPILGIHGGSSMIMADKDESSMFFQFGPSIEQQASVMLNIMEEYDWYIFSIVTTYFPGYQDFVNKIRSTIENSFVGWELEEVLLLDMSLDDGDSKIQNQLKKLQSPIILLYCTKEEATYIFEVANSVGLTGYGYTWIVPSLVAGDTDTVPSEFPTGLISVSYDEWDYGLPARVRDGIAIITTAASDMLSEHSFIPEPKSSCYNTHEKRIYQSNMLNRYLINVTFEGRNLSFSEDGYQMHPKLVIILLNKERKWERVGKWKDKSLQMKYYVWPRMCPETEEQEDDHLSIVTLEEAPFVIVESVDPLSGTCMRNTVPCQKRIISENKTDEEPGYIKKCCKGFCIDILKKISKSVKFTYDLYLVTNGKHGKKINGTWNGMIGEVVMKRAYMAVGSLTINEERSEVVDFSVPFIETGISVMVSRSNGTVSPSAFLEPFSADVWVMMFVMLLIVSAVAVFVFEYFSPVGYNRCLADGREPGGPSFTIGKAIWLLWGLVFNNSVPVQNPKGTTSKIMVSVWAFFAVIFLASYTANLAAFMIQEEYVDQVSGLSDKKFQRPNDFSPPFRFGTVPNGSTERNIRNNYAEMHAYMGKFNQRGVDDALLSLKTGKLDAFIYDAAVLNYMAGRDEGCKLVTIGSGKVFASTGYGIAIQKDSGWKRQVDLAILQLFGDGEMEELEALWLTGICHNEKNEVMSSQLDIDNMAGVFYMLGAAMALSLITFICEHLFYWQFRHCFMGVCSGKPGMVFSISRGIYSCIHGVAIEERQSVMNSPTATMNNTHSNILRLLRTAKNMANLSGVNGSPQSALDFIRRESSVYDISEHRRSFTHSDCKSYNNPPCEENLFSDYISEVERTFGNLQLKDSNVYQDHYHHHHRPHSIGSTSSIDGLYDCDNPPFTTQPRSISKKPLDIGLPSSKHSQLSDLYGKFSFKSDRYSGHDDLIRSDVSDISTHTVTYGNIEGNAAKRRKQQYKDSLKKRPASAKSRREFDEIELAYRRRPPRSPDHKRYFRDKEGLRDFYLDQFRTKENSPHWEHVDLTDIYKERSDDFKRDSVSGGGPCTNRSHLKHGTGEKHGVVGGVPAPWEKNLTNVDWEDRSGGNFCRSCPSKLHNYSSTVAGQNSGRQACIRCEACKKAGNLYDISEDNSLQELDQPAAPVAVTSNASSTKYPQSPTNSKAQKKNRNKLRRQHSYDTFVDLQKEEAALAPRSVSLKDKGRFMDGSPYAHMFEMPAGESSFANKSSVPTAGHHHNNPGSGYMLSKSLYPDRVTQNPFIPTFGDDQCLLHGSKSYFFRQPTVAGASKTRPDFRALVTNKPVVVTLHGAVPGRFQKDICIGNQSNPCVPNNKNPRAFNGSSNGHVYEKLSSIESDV

For `Cn1ccc(Cn2cc(-c3cccc(C(F)(F)F)c3)cn2)n1` [US10155727, Example 49], the half-inhibitory concentration (IC50) (commonly the concentration that inhibits the measured activity by half) came out at 2.25 µM.
The value for `Cc1cc(Cn2cc(-c3ccc(C(F)(F)F)cc3)cn2)n(C)n1` [US10155727, Example 51] was 9.21 µM.
